Tests used:
[1] = system: JAK1-dependent STAT6 phosphorylation downstream of IL-13 stimulation in BEAS-2B human bronchial epithelial cells; test: JAK1 pathway assay in BEAS-2B cells (IL-13-pSTAT6, MSD); format: cell-based; conditions: read-out: IL13-pSTAT6 EC50 (uM)_BEAS-2B
Summary of the method: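 Cells were preincubated with compounds (0.2% DMSO) for 30 min (TF-1, GM-CSF-starved overnight, serum-free OptiMEM, 300,000 cells/well) or 1 h (BEAS-2B, complete medium, 100,000 cells/well) at 37 °C.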

[2] = biological target: isolated recombinant JAK1 kinase domain (Homo sapiens (Human), UniProt P23458); test: JAK1 enzyme assay (Caliper LabChip, peptide phosphorylation); format: biochemical; conditions: isolated recombinant JAK1 kinase domain, 25 μM ATP
[3] = biological target: isolated recombinant JAK2 kinase domain (Homo sapiens (Human), UniProt O60674); test: JAK2 enzyme assay (Caliper LabChip, peptide phosphorylation); format: biochemical; conditions: 25 μM ATP
Chain of isolated recombinant JAK2 kinase domain (O60674 849-1124): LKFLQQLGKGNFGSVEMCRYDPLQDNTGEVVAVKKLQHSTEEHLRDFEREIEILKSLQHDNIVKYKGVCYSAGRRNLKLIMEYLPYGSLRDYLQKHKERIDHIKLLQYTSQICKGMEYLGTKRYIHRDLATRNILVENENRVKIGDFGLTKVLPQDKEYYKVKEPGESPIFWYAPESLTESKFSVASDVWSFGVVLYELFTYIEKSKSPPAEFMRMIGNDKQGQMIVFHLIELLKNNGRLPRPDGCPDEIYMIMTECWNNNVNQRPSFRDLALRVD

Chain of isolated recombinant JAK1 kinase domain (P23458 875-1153): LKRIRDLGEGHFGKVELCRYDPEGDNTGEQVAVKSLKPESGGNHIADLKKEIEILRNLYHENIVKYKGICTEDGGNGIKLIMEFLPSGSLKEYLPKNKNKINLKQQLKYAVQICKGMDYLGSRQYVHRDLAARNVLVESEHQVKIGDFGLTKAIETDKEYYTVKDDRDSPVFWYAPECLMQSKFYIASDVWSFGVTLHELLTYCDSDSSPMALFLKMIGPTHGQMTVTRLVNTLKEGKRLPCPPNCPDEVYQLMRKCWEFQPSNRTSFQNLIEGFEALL

Structure (SMILES) | Ki [2] | Ki [3] | EC50 [1]
CC(C#N)CNC1CCN(C(=O)Cn2cc(NC(=O)c3cnn4cccnc34)c(-c3cc(Cl)ccc3OC(F)F)n2)CC1 (stereo not drawn) [Example 419, N-(3-(5-chloro-2-(difluoromethoxy)phenyl)-1-(2-(4-(2-cyanopropyl-amino)piperidin-1-yl)-2-oxoethyl)-1H-pyrazol-4-yl)pyrazolo[1,5-a]pyrimidine-3-carboxamide] | 0.41 nM | 1.06 nM | 0.0313 µM
CN(CCC#N)C1CCC(=CCn2cc(NC(=O)c3cnn4cccnc34)c(-c3cc(Cl)ccc3OC(F)F)n2)CC1 (stereo not drawn) [Example 420, N-(3-(5-chloro-2-(difluoromethoxy)phenyl)-1-(2-(4-((2-cyanoethyl)(methyl)amino)cyclohexylidene)ethyl)-1H-pyrazol-4-yl)pyrazolo[1,5-a]pyrimidine-3-carboxamide] | 0.57 nM | 0.81 nM | 0.0301 µM
N#CCCNC1CCC(=CCn2cc(NC(=O)c3cnn4cccnc34)c(-c3cc(Cl)ccc3OC(F)F)n2)CC1 (stereo not drawn) [Example 421, N-(3-(5-chloro-2-(difluoromethoxy)phenyl)-1-(2-(4-(2-cyanoethylamino)cyclohexylidene)ethyl)-1H-pyrazol-4-yl)pyrazolo[1,5-a]pyrimidine-3-carboxamide] | 0.65 nM | 0.89 nM | 0.0498 µM
NC1CCC(=CCn2cc(NC(=O)c3cnn4cccnc34)c(-c3cc(Cl)ccc3OC(F)F)n2)CC1 (stereo not drawn) [Example 422, N-(1-(2-(4-amino-cyclohexylidene)ethyl)-3-(5-chloro-2-(difluoromethoxy)phenyl)-1H-pyrazol-4-yl)pyrazolo[1,5-a]pyrimidine-3-carboxamide] | 0.89 nM | 1.77 nM | 0.061 µM
CN(C)C(=O)[C@@H]1CCCN1CC1CCN(C(=O)Cn2cc(NC(=O)c3cnn4cccnc34)c(-c3cc(Cl)ccc3OC(F)F)n2)CC1 [Example 423, N-(3-(5-chloro-2-(difluoromethoxy)phenyl)-1-(2-(4-(((S)-2-(dimethylcarbamoyl)pyrrolidin-1-yl)methyl)piperidin-1-yl)-2-oxoethyl)-1H-pyrazol-4-yl)pyrazolo[1,5-a]pyrimidine-3-carboxamide] | 0.73 nM | 2.79 nM | 0.0312 µM
CN(C)C(=O)[C@@H]1CCCN1C1CCN(C(=O)Cn2cc(NC(=O)c3cnn4cccnc34)c(-c3cc(Cl)ccc3OC(F)F)n2)CC1 [Example 424, N-(3-(5-chloro-2-(difluoromethoxy)phenyl)-1-(2-(4-((S)-2-(dimethylcarbamoyl)pyrrolidin-1-yl)piperidin-1-yl)-2-oxoethyl)-1H-pyrazol-4-yl)pyrazolo[1,5-a]pyrimidine-3-carboxamide] | 1.12 nM | 3.44 nM | 0.0987 µM
CNC(=O)[C@@H]1CCCN1C1CCN(C(=O)Cn2cc(NC(=O)c3cnn4cccnc34)c(-c3cc(Cl)ccc3OC(F)F)n2)CC1 [Example 426, N-(3-(5-chloro-2-(difluoromethoxy)phenyl)-1-(2-(4-((S)-2-(methyl-carbamoyl)pyrrolidin-1-yl)piperidin-1-yl)-2-oxoethyl)-1H-pyrazol-4-yl)pyrazolo[1,5-a]pyrimidine-3-carboxamide] | 0.53 nM | 1.25 nM | 0.0394 µM
CN(C)C(=O)CN1CCN(CC2CCN(C(=O)Cn3cc(NC(=O)c4cnn5cccnc45)c(-c4cc(Cl)ccc4OC(F)F)n3)CC2)CC1 [Example 427, N-(3-(5-chloro-2-(difluoromethoxy)phenyl)-1-(2-(4-((4-(2-(dimethylamino)-2-oxoethyl)piperazin-1-yl)methyl)piperidin-1-yl)-2-oxoethyl)-1H-pyrazol-4-yl)pyrazolo[1,5-a]pyrimidine-3-carboxamide] | 0.42 nM | 1.25 nM | 0.0224 µM
CN(C)C(=O)CN1CCC(CN2CCN(C(=O)Cn3cc(NC(=O)c4cnn5cccnc45)c(-c4cc(Cl)ccc4OC(F)F)n3)CC2)CC1 [Example 428, N-(3-(5-chloro-2-(difluoromethoxy)phenyl)-1-(2-(4-((1-(2-(dimethylamino)-2-oxoethyl)piperidin-4-yl)methyl)piperazin-1-yl)-2-oxoethyl)-1H-pyrazol-4-yl)pyrazolo[1,5-a]pyrimidine-3-carboxamide] | 0.79 nM | 2.51 nM | 0.0453 µM
O=C(Nc1cn(CC(=O)N2CCN(C3CCOCC3)CC2)nc1-c1cc(Cl)ccc1OC(F)F)c1cnn2cccnc12 [Example 429, N-(3-(5-chloro-2-(difluoromethoxy)phenyl)-1-(2-oxo-2-(4-(tetrahydro-2H-pyran-4-yl)piperazin-1-yl)ethyl)-1H-pyrazol-4-yl)pyrazolo[1,5-a]pyrimidine-3-carboxamide] | 0.48 nM | 0.99 nM | 0.0074 µM

More lines, main results first:

Ki [2] | Ki [3] | Structure (SMILES) | EC50 [1]
0.51 nM | 0.77 nM | CN1CCC2CN(C(=O)Cn3cc(NC(=O)c4cnn5cccnc45)c(-c4cc(Cl)ccc4OC(F)F)n3)CC21 (stereo not drawn) [Example 430, N-(3-(5-chloro-2-(difluoromethoxy)phenyl)-1-(2-(1-methyl-hexahydropyrrolo[3,4-b]pyrrol-5(1H)-yl)-2-oxoethyl)-1H-pyrazol-4-yl)pyrazolo[1,5-a]pyrimidine-3-carboxamide] | 0.0058 µM
0.29 nM | 0.74 nM | CN(C1CCN(C(=O)Cn2cc(NC(=O)c3cnn4cccnc34)c(-c3cc(Cl)ccc3OC(F)F)n2)CC1)C1(C#N)CC1 [Example 431, N-(3-(5-chloro-2-(difluoromethoxy)phenyl)-1-(2-(4-((1-cyanocyclopropyl)(methyl)amino)piperidin-1-yl)-2-oxoethyl)-1H-pyrazol-4-yl)pyrazolo[1,5-a]pyrimidine-3-carboxamide] | 0.0029 µM
0.42 nM | 1.16 nM | CN(CC1OCCO1)C1CCN(C(=O)Cn2cc(NC(=O)c3cnn4cccnc34)c(-c3cc(Cl)ccc3OC(F)F)n2)CC1 [Example 433, N-(1-(2-(4-(((1,3-dioxolan-2-yl)methyl)(methyl)amino)piperidin-1-yl)-2-oxoethyl)-3-(5-chloro-2-(difluoromethoxy)phenyl)-1H-pyrazol-4-yl)pyrazolo[1,5-a]pyrimidine-3-carboxamide] | 0.036 µM
0.31 nM | 0.67 nM | O=C(Nc1cn(CC(=O)N2CCC(N3CCSCC3)CC2)nc1-c1cc(Cl)ccc1OC(F)F)c1cnn2cccnc12 [Example 434, N-(3-(5-chloro-2-(difluoromethoxy)phenyl)-1-(2-oxo-2-(4-thiomorpholinopiperidin-1-yl)ethyl)-1H-pyrazol-4-yl)pyrazolo[1,5-a]pyrimidine-3-carboxamide] | 0.0187 µM
0.34 nM | 0.98 nM | CN(CC1(CC#N)CC1)C1CCN(C(=O)Cn2cc(NC(=O)c3cnn4cccnc34)c(-c3cc(Cl)ccc3OC(F)F)n2)CC1 [Example 435, N-(3-(5-chloro-2-(difluoromethoxy)phenyl)-1-(2-(4-(((1-(cyanomethyl)cyclopropyl)methyl)(methyl)amino)piperidin-1-yl)-2-oxoethyl)-1H-pyrazol-4-yl)pyrazolo[1,5-a]pyrimidine-3-carboxamide] | 0.0074 µM
0.25 nM | 0.75 nM | N#CC1(NC2CCN(C(=O)Cn3cc(NC(=O)c4cnn5cccnc45)c(-c4cc(Cl)ccc4OC(F)F)n3)CC2)CC1 [Example 436, N-(3-(5-chloro-2-(difluoromethoxy)phenyl)-1-(2-(4-(1-cyanocyclo-propylamino)piperidin-1-yl)-2-oxoethyl)-1H-pyrazol-4-yl)pyrazolo[1,5-a]pyrimidine-3-carboxamide] | 0.0103 µM
